The text below walks through data of ChEMBL document CHEMBL6134781, “In vitro identification of oridonin hybrids as potential anti-TNBC agents inducing cell cycle arrest and apoptosis by regulation of p21, γH2AX and cleaved PARP” (RSC Med Chem, 2024).

One series relates to MDA-MB-231. The experiment in a line: Cytotoxicity against human MDA-MB-231 cells assessed as inhibition of cell viability incubated for 72 hrs by SRB assay. Type of series: functional, cell-based. Conditions: MDA-MB-231, 72 h. In general terms: The SRB assay estimates cell density from bound dye.
The test system of a further series is HCC1806. The experiment in a line: Cytotoxicity against human HCC1806 cells assessed as inhibition of cell viability incubated for 72 hrs by SRB assay. The series is classed as functional, cell-based. Conditions: HCC1806, 72 h.
A short description of series [1]: Stability in human plasma assessed as half life at 100 uM by LC-MS/MS analysis. Type of series: ADME, cell-free.

What is called IC50 is the concentration at which inhibition is half-maximal. `C=C1C(=O)[C@@]23C(=O)[C@@H]4OC[C@]5(C=CCC(C)(C)[C@@H]45)[C@@H]2CC[C@@H]1[C@H]3OC(=O)c1ccc(N(CCCl)CCCl)cc1`: the IC50 with MDA-MB-231 turned out to be 2.21 µM; with HCC1806 it was 3.02 µM.

For `C=C1C(=O)[C@@]23C(=O)[C@@H]4OC[C@]5(C(=O)CCC(C)(C)[C@@H]45)[C@@H]2CC[C@@H]1[C@H]3OC(=O)Cc1ccccc1Br`, the half-inhibitory concentration (IC50) with MDA-MB-231 and in the series on HCC1806 was above 10 µM each time.

Take `C=C1C(=O)[C@]23[C@H](OC(=O)Cc4ccccc4Br)[C@H]1CC[C@H]2[C@@]12CO[C@]3(O)[C@@H](O)[C@@H]1C(C)(C)CCC2=O`: the IC50 was 3.58 µM in the series on MDA-MB-231 and 7.12 µM in the series on HCC1806.

In the case of `C=C1C(=O)[C@@]23C(=O)[C@@H]4OC[C@@]5([C@H]4C(C)(C)CC[C@@H]5O)[C@@H]2CC[C@@H]1[C@H]3OC(=O)c1ccc(N(CCCl)CCCl)cc1`, the values for the 50% inhibitory concentration (IC50) in the series on MDA-MB-231 and with HCC1806 were 1.83 µM and 1.61 µM, respectively.

By half-life is commonly meant the time in which the quantity being followed falls by half. Regarding `C=C1C(=O)[C@]23[C@H](O)[C@H]1CC[C@H]2[C@@]12CO[C@]3(O)[C@@H](O)[C@@H]1C(C)(C)CC[C@@H]2O` [ORIDONIN], the IC50 in the series with MDA-MB-231 stood at 5.31 µM; with HCC1806, 12.6 µM. Also, in series [1], the half-life at 100 µM worked out at 1.45 h.

Regarding `C=C1C(=O)[C@]23[C@H](OC(=O)Cc4ccc(OC)cc4)[C@H]1CC[C@H]2[C@]12C=CCC(C)(C)[C@H]1[C@H](O)[C@@]3(O)OC2`, the concentration for half-maximal inhibition (IC50) in the series on MDA-MB-231 and in the series with HCC1806 was above 10 µM throughout.

On to `C=C1C(=O)[C@]23[C@H](OC(=O)Cc4ccc(OC)c(OC)c4)[C@H]1CC[C@H]2[C@]12C=CCC(C)(C)[C@H]1[C@H](O)[C@@]3(O)OC2`, for which the IC50 with MDA-MB-231 and in the series on HCC1806 was above 10 µM each time.

`C=C1C(=O)[C@]23[C@H](OC(=O)/C=C/c4ccc(N(C)C)cc4)[C@H]1CC[C@H]2[C@@]12CO[C@]3(O)[C@@H](O)[C@@H]1C(C)(C)CCC2=O`: the IC50 was found to be 1.79 µM in the series with MDA-MB-231 and 2.77 µM in the series on HCC1806.

Consider `C=C1C(=O)[C@]23[C@H](OC(=O)C45CC6CC(CC(C6)C4)C5)[C@H]1CC[C@H]2[C@@]12CO[C@]3(O)[C@@H](O)[C@@H]1C(C)(C)CCC2=O`, for which the figures for the half-maximal inhibitory concentration (IC50) with MDA-MB-231 and with HCC1806 were 1.43 µM and 1.91 µM, respectively.

In the case of `C=C1C(=O)[C@]23[C@H](OC(=O)c4ccc(N(CCCl)CCCl)cc4)[C@H]1CC[C@H]2[C@]12C=CCC(C)(C)[C@H]1[C@H](O)[C@@]3(O)OC2`, the IC50 in the series on MDA-MB-231 was determined as 1.09 µM; in the series with HCC1806, 1.4 µM.

As to `C=C1C(=O)[C@]23[C@H](O)[C@H]1CC[C@H]2[C@@]12CO[C@@]3(O)[C@@H](O)[C@@H]1C(C)(C)CC[C@@H]2OC(C)=O`, the results for the IC50 in the series with MDA-MB-231 and in the series on HCC1806 were 2.49 µM and 2.68 µM, respectively.

As for `C=C1C(=O)[C@]23[C@H](OC(=O)c4ccc(N(CCCl)CCCl)cc4)[C@H]1CC[C@H]2[C@@]12CO[C@]3(O)[C@@H](O)[C@@H]1C(C)(C)CC[C@@H]2O`, the IC50 is 1.67 µM with MDA-MB-231 and 1.32 µM in the series with HCC1806.

In the case of `C=C1C(=O)[C@@]23C(=O)[C@@H]4OC[C@]5(C(=O)CCC(C)(C)[C@@H]45)[C@@H]2CC[C@@H]1[C@H]3OC(=O)Cc1ccc(OC)cc1`, the half-inhibitory concentration (IC50) with MDA-MB-231 is 3.06 µM; in the series with HCC1806 it was 4.6 µM.

`C=C1C(=O)[C@@]23C(=O)[C@@H]4OC[C@]5(C(=O)CCC(C)(C)[C@@H]45)[C@@H]2CC[C@@H]1[C@H]3OC(=O)Cc1ccc(OC)c(OC)c1`: the 50% inhibitory concentration (IC50) was determined as 1.81 µM with MDA-MB-231 and 2.58 µM with HCC1806.

Turning to `C=C1C(=O)[C@@]23C(=O)[C@@H]4OC[C@]5(C(=O)CCC(C)(C)[C@@H]45)[C@@H]2CC[C@@H]1[C@H]3OC(=O)Cc1ccc(N(CCCl)CCCl)cc1`, the figures for the IC50 in the series on MDA-MB-231 and with HCC1806 were 11.5 µM and above 10 µM, respectively.

Regarding `C=C1C(=O)[C@@]23C(=O)[C@@H]4OC[C@]5(C(=O)CCC(C)(C)[C@@H]45)[C@@H]2CC[C@@H]1[C@H]3OC(=O)Cc1cc(OC)c(OC)c(OC)c1`, the half-maximal inhibitory concentration (IC50) in the series with MDA-MB-231 came to 2.6 µM; in the series on HCC1806, 5.07 µM.

With `C=C1C(=O)[C@@]23C(=O)[C@@H]4OC[C@]5(C=CCC(C)(C)[C@@H]45)[C@@H]2CC[C@@H]1[C@H]3OC(=O)Cc1cc(OC)c(OC)c(OC)c1`, the 50% inhibitory concentration (IC50) came out at 3.82 µM with MDA-MB-231 and 5.54 µM in the series on HCC1806.

For the compound `C=C1C(=O)[C@]23[C@H](OC(=O)Cc4cc(OC)c(OC)c(OC)c4)[C@H]1CC[C@H]2[C@]12C=CCC(C)(C)[C@H]1[C@H](O)[C@@]3(O)OC2`, the IC50 with MDA-MB-231 and in the series on HCC1806 was above 10 µM in each case.

Regarding `C=C1C(=O)[C@]23[C@H](OC(=O)C45CC6CC(CC(C6)C4)C5)[C@H]1CC[C@H]2[C@@]12CO[C@]3(O)[C@@H](O)[C@@H]1C(C)(C)CC[C@@H]2OC(C)=O`, the half-inhibitory concentration (IC50) in the series with MDA-MB-231 came to 0.55 µM; with HCC1806 it was 1.48 µM.

`C=C1C(=O)[C@@]23C(=O)[C@@H]4OC[C@@]5([C@H]4C(C)(C)CC[C@@H]5O)[C@@H]2CC[C@@H]1[C@H]3OC(=O)C12CC3CC(CC(C3)C1)C2`: the half-maximal inhibitory concentration (IC50) amounted to 1.5 µM with MDA-MB-231 and 2.13 µM with HCC1806.

With `C=C1C(=O)[C@]23[C@H](OC(=O)Cc4ccc(OC)c(OC)c4)[C@H]1CC[C@H]2[C@@]12CO[C@]3(O)[C@@H](O)[C@@H]1C(C)(C)CCC2=O`, the figures for the 50% inhibitory concentration (IC50) with MDA-MB-231 and in the series with HCC1806 were 8.43 µM and above 10 µM, respectively.

Turning to `C=C1C(=O)[C@@]23C(=O)[C@@H]4OC[C@]5(C=CCC(C)(C)[C@@H]45)[C@@H]2CC[C@@H]1[C@H]3OC(=O)C12CC3CC(CC(C3)C1)C2`, the values for the concentration for half-maximal inhibition (IC50) in the series with MDA-MB-231 and with HCC1806 were 3.66 µM and 5.51 µM, respectively.

As for `C=C1C(=O)[C@@]23C(=O)[C@@H]4OC[C@]5(C=CCC(C)(C)[C@@H]45)[C@@H]2CC[C@@H]1[C@H]3O`, the IC50 in the series on MDA-MB-231 was 2.78 µM; in the series with HCC1806 it was 4.01 µM.

With `C=C1C(=O)[C@]23[C@H](OC(=O)Cc4cc(OC)c(OC)c(OC)c4)[C@H]1CC[C@H]2[C@@]12CO[C@]3(O)[C@@H](O)[C@@H]1C(C)(C)CCC2=O`, the half-inhibitory concentration (IC50) in the series on MDA-MB-231 and with HCC1806 was above 10 µM each time.

As to `C=C1C(=O)[C@]23[C@H](O)[C@H]1CC[C@H]2[C@]12C=CCC(C)(C)[C@H]1[C@H](O)[C@@]3(O)OC2`, the half-maximal inhibitory concentration (IC50) with MDA-MB-231 was 0.87 µM; in the series with HCC1806, 0.91 µM.

Consider `C=C1C(=O)[C@@]23C(=O)[C@@H]4OC[C@]5([C@@H](OC(C)=O)CCC(C)(C)[C@@H]45)[C@@H]2CC[C@@H]1[C@H]3OC(=O)C12CC3CC(CC(C3)C1)C2`, for which the IC50 with MDA-MB-231 amounted to 1.41 µM; in the series with HCC1806 it was 2.39 µM.

`C=C1C(=O)[C@@]23C(=O)[C@@H]4OC[C@]5(C(=O)CCC(C)(C)[C@@H]45)[C@@H]2CC[C@@H]1[C@H]3OC(=O)c1ccc(N(CCCl)CCCl)cc1`: the half-maximal inhibitory concentration (IC50) is 5.7 µM with MDA-MB-231 and above 10 µM in the series on HCC1806.

Consider `C=C1C(=O)[C@]23[C@H](OC(=O)Cc4ccc(N(CCCl)CCCl)cc4)[C@H]1CC[C@H]2[C@@]12CO[C@]3(O)[C@@H](O)[C@@H]1C(C)(C)CCC2=O`, for which the IC50 with MDA-MB-231 was 7.29 µM; with HCC1806, above 10 µM.

For the compound `C=C1C(=O)[C@]23[C@H](OC(=O)Cc4ccc(OC)cc4)[C@H]1CC[C@H]2[C@@]12CO[C@]3(O)[C@@H](O)[C@@H]1C(C)(C)CCC2=O`, the concentration for half-maximal inhibition (IC50) in the series with MDA-MB-231 and with HCC1806 was above 10 µM throughout.

On to `C=C1C(=O)[C@]23[C@H](OC(=O)c4ccc(N(CCCl)CCCl)cc4)[C@H]1CC[C@H]2[C@@]12CO[C@]3(O)[C@@H](O)[C@@H]1C(C)(C)CCC2=O`, for which the half-inhibitory concentration (IC50) was found to be 1.72 µM in the series on MDA-MB-231 and 3.64 µM with HCC1806.

For the compound `C=C1C(=O)[C@]23[C@H](OC(=O)C45CC6CC(CC(C6)C4)C5)[C@H]1CC[C@H]2[C@]12C=CCC(C)(C)[C@H]1[C@H](O)[C@@]3(O)OC2`, the results for the IC50 with MDA-MB-231 and in the series on HCC1806 were 2.42 µM and 2.61 µM, respectively.

Turning to `C=C1C(=O)[C@@]23C(=O)[C@@H]4OC[C@]5(C(=O)CCC(C)(C)[C@@H]45)[C@@H]2CC[C@@H]1[C@H]3OC(=O)C12CC3CC(CC(C3)C1)C2`, the IC50 is 3.26 µM with MDA-MB-231 and 5.59 µM in the series with HCC1806.

`C=C1C(=O)[C@]23[C@H](O)[C@H]1CC[C@H]2[C@@]12CO[C@]3(O)[C@@H](O)[C@@H]1C(C)(C)CCC2=O`: the IC50 in the series on MDA-MB-231 stood at 2.07 µM; in the series on HCC1806, 3.56 µM.
